Experimental data: patent publication US12629374B2, “Antimalarial agents” (Merck Sharp & Dohme LLC, priority 2020, dated 2026)
pEC50: −log10 of the molar value. Read-outs that look alike come from different tables or passages of the source.

Tested on: ring stage parasites
Test: Parasite growth potency assay, 72 hours, LDH readout
Format: cell-based
Conditions: parasite growth measured by LDH assay after 72 hours at 37° C., 0.7% rings, 2% haematocrit, read-out: EC50
Experimental: The parasite stock was maintained at 4% haematocrit in RPMI-Hepes media buffered with sodium bicarbonate and supplemented with 5% heat inactivated human serum and 0.5% albumax.
On the day of assay set up, a blood smear of the parasite culture was Giemsa stained and counted. The parasitemia was adjusted to 0.7% rings and the haematocrit was diluted to 2% in RPMI-Hepes media buffered with sodium bicarbonate and supplemented with 5% heat inactivated human serum and 0.5% albumax. 30 ul of diluted parasites are then added into 10 ul of media+compound in pre-prepared Greiner TC assay plates. Parasite assay plates were placed in gassed humidified boxes in single layer and allowed to incubate at 37° C. for 72 hours. After 72 hours growth, assay plates are sealed with parafilm and frozen flat, in single file at −80° C. overnight. On the following day, assay plates are allowed to thaw at room temperature for 4 hours to which an LDH assay is performed to measure parasite growth.

SMILES | pEC50 (72 h) | also measured
CCC1(CC)CC(=O)N([C@H](CCOC)c2cc(F)cc(C(=O)N[C@@H]3c4ccccc4OC(C)(C)[C@H]3O)c2)C(=N)N1 (stereo in doubt) [Example 129A, [4,4-diethyl-1-[1-[3-fluoro-5-[(3-hydroxy-2,2-dimethyl-chroman-4-yl)carbamoyl]phenyl]-3-methoxy-propyl]-6-oxo-hexahydropyrimidin-2-ylidene]ammonium; 2,2,2-trifluoroacetate] | 9.10 | 
CCC1(CC)CC(=O)N([C@H](CCOC)c2cc(F)cc(C(=O)N[C@H]3c4ccccc4OC(C)(C)[C@@H]3O)c2)C(=N)N1 (stereo in doubt) [Example 129B, [4,4-diethyl-1-[1-[3-fluoro-5-[(3-hydroxy-2,2-dimethyl-chroman-4-yl)carbamoyl]phenyl]-3-methoxy-propyl]-6-oxo-hexahydropyrimidin-2-ylidene]ammonium; 2,2,2-trifluoroacetate] | 7.06 | 
CCC1(CC)CC(=O)N(Cc2cccc(C(=O)N[C@@H]3c4ccccc4OCC3(C)O)c2)C(=N)N1 (stereo in doubt) [Example 131A, 3-[(4,4-diethyl-2-imino-6-oxo-hexahydropyrimidin-1-yl)methyl]-N-(3-hydroxy-3-methyl-chroman-4-yl)benzamide] | 8.18 | 
CCC1(CC)CC(=O)N(Cc2cccc(C(=O)N[C@H]3c4ccccc4OCC3(C)O)c2)C(=N)N1 (stereo in doubt) [Example 131B, 3-[(4,4-diethyl-2-imino-6-oxo-hexahydropyrimidin-1-yl)methyl]-N-(3-hydroxy-3-methyl-chroman-4-yl)benzamide] | 7.69 | 
CCC1(CC)CC(=O)N(Cc2cc(C(=O)N[C@@H]3c4ccccc4OC(C)(C)[C@H]3O)ccn2)C(=N)N1 (stereo in doubt) [Example 133, [4,4-diethyl-1-[[4-[(3-hydroxy-2,2-dimethyl-chroman-4-yl)carbamoyl]pyridin-1-ium-2-yl]methyl]-6-oxo-hexahydropyrimidin-2-ylidene]ammonium; 2,2,2-trifluoroacetate] | 8.48 | 
CCC1(CC)CC(=O)N([C@H](CCN2CCOCC2)c2cccc(C(=O)NC3CC(C)(C)Oc4ccc(F)cc43)c2)C(=N)N1 (stereo in doubt) [Example 137, [4,4-diethyl-1-[1-[3-[(6-fluoro-2,2-dimethyl-chroman-4-yl)carbamoyl]phenyl]-3-morpholin-4-ium-4-yl-propyl]-6-oxo-hexahydropyrimidin-2-ylidene]ammonium; 2,2,2-trifluoroacetate] | 9.10 | 
CCC1(CC)CC(=O)N([C@H](CCOC)c2cccc(C(=O)NC3c4ccccc4CC3(C)O)c2)C(=N)N1 (stereo in doubt) [Example 142A, 3-[1-(4,4-diethyl-2-imino-6-oxo-hexahydropyrimidin-1-yl)-3-methoxy-propyl]-N-(2-hydroxy-2-methyl-indan-1-yl)benzamide] | 8.68 | 
CCC1(CC)CC(=O)N([C@H](CCOC)c2cccc(C(=O)N[C@@H]3c4ccccc4OCC3(C)O)c2)C(=N)N1 (stereo in doubt) [Example 143A, 3-[1-(4,4-diethyl-2-imino-6-oxo-hexahydropyrimidin-1-yl)-3-methoxy-propyl]-N-(3-hydroxy-3-methyl-chroman-4-yl)benzamide] | 8.66 | 
CCC1(CC)CC(=O)N([C@H](CCOC)c2cccc(C(=O)N[C@@H]3c4ccccc4OCC3(C)O)c2)C(=N)N1 (stereo in doubt) [Example 143B, 3-[1-(4,4-diethyl-2-imino-6-oxo-hexahydropyrimidin-1-yl)-3-methoxy-propyl]-N-(3-hydroxy-3-methyl-chroman-4-yl)benzamide] |  | pEC50: 8.74
CCC1(CC)CC(=O)N([C@H](CCOC)c2cc(F)cc(C(=O)N[C@@H]3c4ccccc4CC3(C)O)c2)C(=N)N1 (stereo in doubt) [Example 144B, 3-[1-(4,4-diethyl-2-imino-6-oxo-hexahydropyrimidin-1-yl)-3-methoxy-propyl]-5-fluoro-N-(2-hydroxy-2-methyl-indan-1-yl)benzamide] |  | pEC50: 8.72
CCC1(CC)CC(=O)N([C@H](CCOC)c2cc(F)cc(C(=O)N[C@@H]3c4ccccc4CC3(C)O)c2)C(=N)N1 (stereo in doubt) [Example 144D, 3-[1-(4,4-diethyl-2-imino-6-oxo-hexahydropyrimidin-1-yl)-3-methoxy-propyl]-5-fluoro-N-(2-hydroxy-2-methyl-indan-1-yl)benzamide] |  | pEC50: 9.05
CCC1(CC)CC(=O)N(Cc2cccc(C(=O)N[C@@H]3c4cc(F)ccc4OC(C)(C)[C@H]3O)c2)C(=N)N1 (stereo in doubt) [Example 147, [4,4-diethyl-1-[[3-[(6-fluoro-3-hydroxy-2,2-dimethyl-chroman-4-yl)carbamoyl]phenyl]methyl]-6-oxo-hexahydropyrimidin-2-ylidene]ammonium; 2,2,2-trifluoroacetate] | 9.00 | 
CCC1(CC)CC(=O)N(Cc2cc(F)cc(C(=O)N[C@@H]3c4cc(F)ccc4OC(C)(C)[C@H]3O)c2)C(=N)N1 (stereo in doubt) [Example 148, [4,4-diethyl-1-[[3-fluoro-5-[(6-fluoro-3-hydroxy-2,2-dimethyl-chroman-4-yl)carbamoyl]phenyl]methyl]-6-oxo-hexahydropyrimidin-2-ylidene]ammonium; 2,2,2-trifluoroacetate] | 9.00 | 
CCC1(CC)CC(=O)N(Cc2cccc(C(=O)N[C@@H]3c4ccccc4OC(C)(C)C3(C)O)c2)C(=N)N1 (stereo in doubt) [Example 184, 3-[(4,4-diethyl-2-imino-6-oxo-hexahydropyrimidin-1-yl)methyl]-N-(3-hydroxy-2,2,3-trimethyl-chroman-4-yl)benzamide] | 8.82 | 
CC1(C)CC(=O)N(Cc2cccc(C(=O)N[C@@H]3c4ccccc4OC(C)(C)C3(C)O)c2)C(=N)N1 (stereo in doubt) [Example 185, N-(3-hydroxy-2,2,3-trimethyl-chroman-4-yl)-3-[(2-imino-4,4-dimethyl-6-oxo-hexahydropyrimidin-1-yl)methyl]benzamide] | 7.20 | 
CCC1(CC)CC(=O)N(Cc2cccc(C(=O)N[C@@H]3c4ccccc4OC3(C)C)c2)C(=N)N1 (stereo in doubt) [Example 186, [1-[[3-[(2,2-dimethyl-3H-benzofuran-3-yl)carbamoyl]phenyl]methyl]-4,4-diethyl-6-oxo-hexahydropyrimidin-2-ylidene]ammonium; 2,2,2-trifluoroacetate] | 7.96 | 
CCC1(CC)CC(=O)N(Cc2cccc(C(=O)N[C@@H]3c4ccccc4OC3(C)CO)c2)C(=N)N1 (stereo in doubt) [Example 187A, [4,4-diethyl-1-[[3-[[2-(hydroxymethyl)-2-methyl-3H-benzofuran-3-yl]carbamoyl]phenyl]methyl]-6-oxo-hexahydropyrimidin-2-ylidene]ammonium; 2,2,2-trifluoroacetate] |  | pEC50 (trifluoroacetate): 7.27
CCC1(CC)CC(=O)N(Cc2cccc(C(=O)N[C@@H]3c4ccccc4OC3(C)CO)c2)C(=N)N1 (stereo in doubt) [Example 187B, [4,4-diethyl-1-[[3-[[2-(hydroxymethyl)-2-methyl-3H-benzofuran-3-yl]carbamoyl]phenyl]methyl]-6-oxo-hexahydropyrimidin-2-ylidene]ammonium; 2,2,2-trifluoroacetate] |  | pEC50 (trifluoroacetate): 7.71
CCC1(CC)CC(=O)N(Cc2cccc(C(=O)N[C@@H]3c4ccccc4C(F)(F)C3O)c2)C(=N)N1 (stereo in doubt) [Example 190, [1-[[3-[(3,3-difluoro-2-hydroxy-indan-1-yl)carbamoyl]phenyl]methyl]-4,4-diethyl-6-oxo-hexahydropyrimidin-2-ylidene]ammonium; 2,2,2-trifluoroacetate] | 8.18 | 
CC1(C)CC(=O)N(Cc2cc(F)cc(C(=O)N[C@@H]3c4cc(F)ccc4OC(C)(C)[C@H]3O)c2)C(=N)N1 (stereo in doubt) [Example 197, [1-[[3-fluoro-5-[(6-fluoro-3-hydroxy-2,2-dimethyl-chroman-4-yl)carbamoyl]phenyl]methyl]-4,4-dimethyl-6-oxo-hexahydropyrimidin-2-ylidene]ammonium; 2,2,2-trifluoroacetate] | 8.47 | 
CCC1(CC)CC(=O)N(Cc2cccc(C(=O)N[C@@H]3c4cc(F)ccc4C[C@H]3O)c2)C(=N)N1 (stereo in doubt) [Example 199, [4,4-diethyl-1-[[3-[(6-fluoro-2-hydroxy-indan-1-yl)carbamoyl]phenyl]methyl]-6-oxo-hexahydropyrimidin-2-ylidene]ammonium; 2,2,2-trifluoroacetate] | 8.21 | 
C#CCC[C@H](c1cccc(C(=O)NC2CC3(CCC3)Oc3ccccc32)c1)N1C(=N)NC(CC)(CC)CC1=O (stereo in doubt) [Example 211A, [4,4-diethyl-6-oxo-1-[(1R)-1-[3-[[(4S)-spiro[chromane-2,1′-cyclobutane]-4-yl]carbamoyl]phenyl]pent-4-ynyl]hexahydropyrimidin-2-ylidene]ammonium; 2,2,2-trifluoroacetate] | 7.60 | 
C#CCC[C@H](c1cccc(C(=O)NC2CC3(CCC3)Oc3ccccc32)c1)N1C(=N)NC(CC)(CC)CC1=O (stereo in doubt) [Example 211B, [4,4-diethyl-6-oxo-1-[(1R)-1-[3-[[(4R)-spiro[chromane-2,1′-cyclobutane]-4-yl]carbamoyl]phenyl]pent-4-ynyl]hexahydropyrimidin-2-ylidene]ammonium; 2,2,2-trifluoroacetate] |  | pEC50 (trifluoroacetate): 9.30
